The subject of series [1] is DU-145. Kind of series: Antiproliferative activity against human DU145 cells after 96 hrs by propidium iodide staining based fluorescence 2D monolayer assay. Type of series: functional, cell-based. The note with it: DU-145, 96 h.
The conditions of series [2]: 96 h.
Description: Solubility in RPMI1640 culture medium at <30 uM incubated for 4 days by microscopic analysis
Series [3] has as its system VCaP. Kind of series: Antiproliferative activity against human VCaP cells after 96 hrs by propidium iodide staining based fluorescence 2D monolayer assay. Format: functional, cell-based.
Series [4] relates to CWR22R. The series can be described thus: Antiproliferative activity against human 22Rv1 cells after 96 hrs by propidium iodide staining based fluorescence 2D monolayer assay. Format: functional, cell-based. Particulars: 22Rv1, 96 h.
For series [5] the following is noted: 33000 µM.
Description: Solubility in 100% DMSO at 33 mM at -20 degC
For series [6], the system named is LNCaP. Kind of series: Antiproliferative activity against human LNCAP cells after 96 hrs by propidium iodide staining based fluorescence 2D monolayer assay. Type of series: functional, cell-based.

As for `CC(O)(COc1ccc(C#N)cc1)C(=O)Nc1ccc([N+](=O)[O-])c(C(F)(F)F)c1` (centres undefined), the IC50 came out at 32.7 µM in series [1], 26.9 µM in series [3], 30.9 µM in series [4] and 18.7 µM in series [6]. Besides, the solubility entry in series [2] and in series [5] was “Soluble” in each case.

For the compound `CC(O)(CS(=O)(=O)c1ccc(OC(F)(F)F)cc1)C(=O)Nc1ccc(C#N)c(C(F)(F)F)c1` (centres undefined), the IC50 was determined as 27.3 µM in series [1], 32.8 µM in series [3], 17 µM in series [4] and 31.6 µM in series [6]. Besides, the solubility result in series [2] and in series [5] was “Soluble” throughout.

`CC(O)(COc1ccc(OC(F)(F)F)cc1)C(=O)Nc1ccc(C#N)cc1C(F)(F)F` (centres undefined): the half-inhibitory concentration (IC50) in series [1] was found to be 34.6 µM; in series [3], 22.4 µM; in series [4], 28 µM; in series [6], 27.7 µM. Besides, the solubility entry in series [2] and in series [5] was “Soluble” each time.

Consider `CC(O)(COc1ccc(F)c(F)c1)C(=O)Nc1ccc(C#N)cc1C(F)(F)F` (centres undefined), for which the IC50 turned out to be 41.9 µM in series [1], 47.2 µM in series [3], 37 µM in series [4] and 34.8 µM in series [6]. Also, the solubility entry in series [2] and in series [5] was “Soluble” throughout.

Take `CC(O)(COc1ccc(F)cc1F)C(=O)Nc1ccc(C#N)c(C(F)(F)F)c1` (centres undefined): the 50% inhibitory concentration (IC50) stood at 44.3 µM in series [1], 38.7 µM in series [3], 34 µM in series [4] and 37.3 µM in series [6]. Also, the solubility entry in series [2] and in series [5] was “Soluble” each time.

Turning to `CC(O)(CS(=O)(=O)c1ccc(C(F)(F)F)cc1)C(=O)Nc1ccc([N+](=O)[O-])cc1C(F)(F)F` (centres undefined), the concentration for half-maximal inhibition (IC50) turned out to be 40.9 µM in series [1], 46.9 µM in series [3], 25.4 µM in series [4] and 29.3 µM in series [6]. The solubility entry in series [2] and in series [5] was “Soluble” throughout.

Turning to `CC(O)(CSc1ccc(F)c(F)c1)C(=O)Nc1ccc([N+](=O)[O-])cc1C(F)(F)F` (centres undefined), the IC50 in series [1] was 100 µM; in series [3] it was 100 µM; in series [4] it was 83.6 µM; in series [6], 83 µM. Moreover, the solubility result in series [2] and in series [5] was “Soluble” each time.

Turning to `CC(O)(COc1ccc(F)cc1F)C(=O)Nc1ccc([N+](=O)[O-])c(C(F)(F)F)c1` (centres undefined), the IC50 turned out to be 22.4 µM in series [1], 20.9 µM in series [3], 20.2 µM in series [4] and 10.1 µM in series [6]. In addition, the solubility entry in series [2] and in series [5] was “Soluble” throughout.

Regarding `CC(O)(COc1ccc(C(F)(F)F)cn1)C(=O)Nc1ccc(C#N)cc1C(F)(F)F` (centres undefined), the IC50 in series [1], in series [3], in series [4] and in series [6] was 100 µM in each case. Moreover, the solubility entry in series [2] and in series [5] was “Soluble” throughout.

Consider `CC(O)(COc1cccc(C(F)(F)F)c1)C(=O)Nc1ccc(C#N)c(C(F)(F)F)c1` (centres undefined), for which the half-inhibitory concentration (IC50) in series [1] stood at 10.8 µM; in series [3] it was 9.04 µM; in series [4], 5.89 µM; in series [6], 8.31 µM. The solubility result in series [2] and in series [5] was “Soluble” throughout.

On to `CC(O)(CS(=O)(=O)c1ccccc1C(F)(F)F)C(=O)Nc1ccc([N+](=O)[O-])cc1C(F)(F)F` (centres undefined), for which the half-maximal inhibitory concentration (IC50) in series [1] worked out at 46.1 µM; in series [3], 38.6 µM; in series [4], 28.3 µM; in series [6], 20.5 µM. Besides, the solubility result in series [2] and in series [5] was “Soluble” each time.

In the case of `CC(O)(COc1ccc(F)c(F)c1)C(=O)Nc1ccc([N+](=O)[O-])c(C(F)(F)F)c1` (centres undefined), the IC50 in series [1] is 21.6 µM; in series [3] it was 18.9 µM; in series [4], 18.5 µM; in series [6] it was 14.5 µM. The solubility result in series [2] and in series [5] was “Soluble” throughout.

Consider `CC(O)(CS(=O)(=O)c1ccc(F)cc1F)C(=O)Nc1ccc([N+](=O)[O-])cc1C(F)(F)F` (centres undefined), for which the IC50 in series [1] is 46.6 µM; in series [3], 58 µM; in series [4], 30.2 µM; in series [6], 17.9 µM. Moreover, the solubility result in series [2] and in series [5] was “Soluble” throughout.

For the compound `CC(O)(CSc1cc(C(F)(F)F)ccn1)C(=O)Nc1ccc([N+](=O)[O-])cc1C(F)(F)F` (centres undefined), the IC50 in series [1] amounted to 14 µM; in series [3], 17.4 µM; in series [4], 11.5 µM; in series [6] it was 5.52 µM. Further, the solubility result in series [2] and in series [5] was “Soluble” each time.

For the compound `CC1(C)C(=O)N(c2cccc(C(F)(F)F)c2)C(=O)N1c1ccc(C(F)(F)F)cc1`, the IC50 was determined as 100 µM in series [1], 100 µM in series [3], 92.5 µM in series [4] and 16.6 µM in series [6]. For the same compound, the solubility entry in series [2] and in series [5] was “Soluble” throughout.

Take `C[C@](O)(CS(=O)(=O)c1ccccc1C(F)(F)F)C(=O)Nc1ccc(C#N)c(C(F)(F)F)c1`: the IC50 in series [1] stood at 44.3 µM; in series [3], 37.3 µM; in series [4], 34.8 µM; in series [6], 32.2 µM. Further, the solubility result in series [2] and in series [5] was “Soluble” each time.

For `CC(O)(CSc1ccc(C(F)(F)F)cc1)C(=O)Nc1ccc([N+](=O)[O-])cc1C(F)(F)F` (centres undefined), the IC50 stood at 19.2 µM in series [1], 17.1 µM in series [3], 14.6 µM in series [4] and 8.66 µM in series [6]. Besides, the solubility result in series [2] and in series [5] was “Soluble” in each case.

In the case of `CC(O)(COc1ccc(C(F)(F)F)cc1)C(=O)Nc1ccc([N+](=O)[O-])cc1C(F)(F)F` (centres undefined), the IC50 is 22.1 µM in series [1], 18.6 µM in series [3], 18.9 µM in series [4] and 13.6 µM in series [6]. In addition, the solubility entry in series [2] and in series [5] was “Soluble” throughout.

For `CC(O)(CS(=O)(=O)c1ccccc1C(F)(F)F)C(=O)Nc1ccc(C#N)c(C(F)(F)F)c1` (centres undefined), the IC50 amounted to 55 µM in series [1], 58.6 µM in series [3], 46.6 µM in series [4] and 42.7 µM in series [6]. Moreover, the solubility entry in series [2] and in series [5] was “Soluble” in each case.

Regarding `CC(O)(CSc1ccccc1C(F)(F)F)C(=O)Nc1ccc(C#N)cc1C(F)(F)F` (centres undefined), the concentration for half-maximal inhibition (IC50) in series [1] was determined as 18.4 µM; in series [3] it was 18.3 µM; in series [4], 11.6 µM; in series [6], 10.7 µM. Besides, the solubility result in series [2] and in series [5] was “Soluble” each time.

In the case of `CC1(C)C(=O)N(c2cccc(C(F)(F)F)c2)C(=O)N1c1ccccc1C(F)(F)F`, the half-inhibitory concentration (IC50) in series [1] was found to be 100 µM; in series [3], 100 µM; in series [4] it was 100 µM; in series [6] it was 28.3 µM. In addition, the solubility entry in series [2] and in series [5] was “Soluble” in each case.

With `CC(O)(CS(=O)(=O)c1ccccc1OC(F)(F)F)C(=O)Nc1ccc([N+](=O)[O-])cc1C(F)(F)F` (centres undefined), the IC50 in series [1] is 39 µM; in series [3] it was 51.7 µM; in series [4], 28.8 µM; in series [6], 17.8 µM. For the same compound, the solubility entry in series [2] and in series [5] was “Soluble” each time.

In the case of `CC(O)(COc1ccc(C(F)(F)F)cn1)C(=O)Nc1ccc([N+](=O)[O-])c(C(F)(F)F)c1` (centres undefined), the IC50 in series [1] was 100 µM; in series [3] it was 100 µM; in series [4], 35.2 µM; in series [6], 36.5 µM. For the same compound, the solubility entry in series [2] and in series [5] was “Soluble” in each case.

Turning to `CC(O)(COc1ccccc1C(F)(F)F)C(=O)Nc1ccc(C(F)(F)F)cc1` (centres undefined), the IC50 amounted to 26.4 µM in series [1], 11.5 µM in series [3], 6.42 µM in series [4] and 6.98 µM in series [6]. In addition, the solubility entry in series [2] and in series [5] was “Soluble” in each case.

As for `CC(O)(COc1ccc(C#N)c(F)c1)C(=O)Nc1ccc(C#N)cc1C(F)(F)F` (centres undefined), the IC50 in series [1] amounted to 68.8 µM; in series [3] it was 77.2 µM; in series [4] it was 45.3 µM; in series [6], 78.3 µM. The solubility entry in series [2] and in series [5] was “Soluble” in each case.

`C[C@](O)(CS(=O)(=O)c1ccc(F)cc1)C(=O)Nc1ccc(C#N)cc1C(F)(F)F`: the IC50 is 100 µM in series [1], 100 µM in series [3], 100 µM in series [4] and 85.5 µM in series [6]. Moreover, the solubility entry in series [2] and in series [5] was “Soluble” each time.

`CC(O)(COc1cccc(OC(F)(F)F)c1)C(=O)Nc1ccc(C#N)cc1C(F)(F)F` (centres undefined): the half-maximal inhibitory concentration (IC50) came out at 35.9 µM in series [1], 56.3 µM in series [3], 28.7 µM in series [4] and 63.4 µM in series [6]. Moreover, the solubility result in series [2] and in series [5] was “Soluble” each time.

For the compound `CC(O)(COc1cccc(OC(F)(F)F)c1)C(=O)Nc1ccc(C(F)(F)F)cc1` (centres undefined), the IC50 in series [1] stood at 29.4 µM; in series [3], 4.28 µM; in series [4] it was 15.4 µM; in series [6], 2.16 µM. For the same compound, the solubility entry in series [2] and in series [5] was “Soluble” throughout.

`CC(O)(COc1ccc(C(F)(F)F)cc1)C(=O)Nc1ccc([N+](=O)[O-])c(C(F)(F)F)c1` (centres undefined): the IC50 in series [1] is 25.9 µM; in series [3], 10.9 µM; in series [4], 16.2 µM; in series [6], 17.2 µM. Also, the solubility entry in series [2] and in series [5] was “Soluble” each time.

The values are drawn from ChEMBL document CHEMBL4477199, “Design and synthesis of novel bicalutamide and enzalutamide derivatives as antiproliferative agents for the treatment of prostate cancer” (Eur J Med Chem, 2016).
